Results: patent US20260284208A1, “SYSTEM” (Oxford University Innovation Limited, priority 2023, published 2026)

How the values were obtained:
[1] = target: WEIS mutant (Q147W N149E Q150I) (Homo sapiens, UniProt Q96SW2+Q9UKT9, N149E/Q147W/Q150I); test: GFP degradation assay (plate reader), WEIS; assay type: cell-based; conditions: background autofluorescence subtracted
Description: (§1) Jurkat cells were added to 96 well U-bottom assay plates (Falcon) at 1×10^5 cells per well and treated with compounds for 18 hours at 37° C. and 5% CO2. Cells were stained with 1 μg/mL DAPI (ThermoFisher) and acquired on a Cytoflex S (Beckman Coulter). Data was analysed using FlowJo 10.8.1 (BD).
(§2) The compounds were assessed in GFP degradation assays as described above. (Data shown in FIG. 19 was obtained using a plate reader leading to a degree of background autofluorescence). The data in FIG. 19 indicates the inflection point—at which range of concentrations the degradation occurs—for each compound. DC50 and selectivity values (following subtraction of background autofluorescence) were acquired. Compound C01 degrades both wild type IKZF3 and WEIS mutant (Q147W N149E Q150I).

wild type IKZF3 = wild type IKZF3 (Homo sapiens, UniProt Q96SW2+Q9UKT9); test: GFP degradation assay (plate reader), WT; assay type: cell-based; conditions: background autofluorescence subtracted
Sequence of wild type IKZF3 (Q9UKT9 130-189): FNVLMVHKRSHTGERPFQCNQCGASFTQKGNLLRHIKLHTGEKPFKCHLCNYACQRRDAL
Sequence of wild type IKZF3 (Q96SW2 whole entry): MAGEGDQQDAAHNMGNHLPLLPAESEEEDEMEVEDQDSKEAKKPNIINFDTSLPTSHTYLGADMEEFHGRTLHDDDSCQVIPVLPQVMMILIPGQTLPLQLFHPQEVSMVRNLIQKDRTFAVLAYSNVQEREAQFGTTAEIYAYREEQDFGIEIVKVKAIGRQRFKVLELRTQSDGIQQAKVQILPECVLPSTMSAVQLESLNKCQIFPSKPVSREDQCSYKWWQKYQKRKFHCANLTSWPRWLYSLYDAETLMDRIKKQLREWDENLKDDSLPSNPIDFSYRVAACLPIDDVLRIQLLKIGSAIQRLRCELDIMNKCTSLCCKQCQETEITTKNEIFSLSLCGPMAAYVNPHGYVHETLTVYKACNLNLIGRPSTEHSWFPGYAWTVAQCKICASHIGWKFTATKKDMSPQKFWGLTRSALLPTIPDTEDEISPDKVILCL
Description: as §1, §2

[2] = system: library of 8,380 IKZF3 degrons (ZF-eGFP/mCherry reporter) in Jurkat cells; test: Pooled library screen (FACS, NGS, limma voom LogFC of positive vs negative read counts); assay type: cell-based, human; conditions: WT ZF sequence
Description: A library of 8,380 IKZF3 degrons was cloned into pLVX-Sprout to create the eGFP/mCherry protein degradation reporter plasmid pool. A lentivirus pool was then generated using the Lenti-X lentiviral vector production method.
Jurkat cells were transduced at a multiplicity of infection of <0.3 with the lentivirus vector library in order to maximise the number of cells with a single integration. Transductions were carried out in 6 well TC-treated cell culture dishes (Falcon) with 3×10^6 cells per well. Cells were incubated for 2 days at 37° C. and 5% CO2 before the supernatant was removed and replaced with fresh media. 6 days post-transduction, mCherry+ cells were isolated via FACS using the FACS Aria Fusion (BD) in a buffer containing PBS (Gibco), 2 mM EDTA (Gibco), 25 mM HEPES (Sigma) and 1% BSA (Sigma). 8 days later, cells were treated with DMSO or a thalidomide analog for 18 hours at 37° C. and 5% CO2. mCherry+GFPlow and NOT(mCherry+GFPlow) cells were sorted by FACS using the FACS Aria Fusion (BD). DMSO treated cells were used to set the mCherry+GFPlow gate and dead cells were excluded from sorting by staining cells with 1 μg/mL DAPI (ThermoFisher). gDNA was isolated using the Maxwell RSC 48 (Promega). gDNA from cells that were unsorted and untreated were also isolated to determine the library representation on the day of compound treatment. Throughout the screen >600× coverage of the library was maintained. 3 biological replicates were carried out with a new transduction taking place each time.
A two-step PCR was used where the first PCR (PCR1) amplified the integrated degron sequence from gDNA and the second PCR (PCR2) added Illumina adaptors and barcodes to permit multiplexing. See Supp F for PCR1 and PCR2 primers. Q5 Hot Start High-Fidelity 2× Master Mix (New England Biolabs) was used for both PCRs. Sufficient gDNA was amplified in PCR1 in order to maintain >600× coverage and amplicons were purified using solid phase reversible immobilization (SPRI) beads (Beckman Coulter). Purified PCR1 products were analysed on the Tapestation 4200 (Agilent) to confirm purity prior to proceeding to PCR2. Sufficient PCR1 product was amplified in PCR2 in order to maintain >600× coverage and amplicons were run on a 2% agarose TAE gel. Target bands were excised and purified using the NucleoSpin Gel and PCR Clean-up Kit (Machery Nagel). Amplicons were analysed on the Tapestation 4200 and quantified using Qubit dsDNA HS kit (ThermoFisher). PCR products were pooled and sequenced as paired-reads on the NovaSeq (Illumina) using a SP2 200 cycles kit (Illumina).
Count distributions, percentage of read mapping, library coverage and replicate correlation per sample were assessed for QC purposes.
To carry out the library screen, we used the same plasmid construct as in our earlier flow cytometry assays, but pooling all 8,380 mutants together into one Jurkat population, ensuring a copy number of one plasmid per cell (FIG. 4B). […] These GFP-negative cells were then separated from the remaining GFP-positive population using fluorescence activated cell sorting (FACS). These two populations were then sequenced and the relative abundance of every mutant in both populations compared to provide a log FC value for each mutant sequence. This value indicated how frequently a sequence is observed in the GFP-negative population relative to the GFP-positive population, and therefore how effective a degron it is for that particular IMID compound.

Sequence of WEIS mutant (Q147W N149E Q150I) (Q9UKT9 130-189 Q147W/N149E/Q150I): as the sequence (Q9UKT9 130-189) above, with Q18W, N20E, Q21I counted along it
Sequence of WEIS mutant (Q147W N149E Q150I) (Q96SW2 whole entry): as the sequence (Q96SW2 whole entry) above

SMILES | degradation of WEIS mutant [1] | degradation of wild type IKZF3 (wild type IKZF3) | position of the WT sequence in the volcano plot of the library screen [2]
CN1CCN(c2ccc3c(c2)CN(C2CCC(=O)NC2=O)C3=O)CC1 (stereo not drawn) [C01] | degrades | degrades | –
O=C1CCC(N2C(=O)c3ccccc3C2=O)C(=O)N1 (stereo not drawn) [thalidomide, reference compound] | – | – | close to the ‘hits’ region
